Data published in patent US20210244743A1 (priority 2020, published 2021).

Key:
[1] = tested on: SARS-CoV-2; assay: SARS-CoV-2 viral transcript levels by quantitative real-time PCR in Vero E6 cells; assay type: cell-based; conditions: for EC50: Severe acute respiratory syndrome coronavirus 2, Vero C1008, Vero E6 cells, compound added 3 hours after virus (100 TCID50), assayed 48 hours later, read-out: EC50, viral transcript copy number
[2] = tested on: SARS; assay: microbe, parasite or virus in culture; assay type: cell-based, SARS-CoV; conditions: Severe acute respiratory syndrome coronavirus, Vero, read-out: average EC50 (50% virus inhibitory concentration)
[3] = tested on: MERS; assay: microbe, parasite or virus in culture; assay type: cell-based, MERS-CoV; conditions: Middle East respiratory syndrome-related coronavirus, Vero, read-out: average EC50 (50% virus inhibitory concentration)
[4] = in vitro; conditions: African green monkey

Row | SMILES | selectivity index (CC50/EC50) ([1]; SARS-CoV-2, Vero E6 cells) | EC50 [1] [µM] | EC50 [2] [µM] | EC50 [3] [µM] | CC50 [4] [µM]
1 | Cc1cccc(/C=N/Nc2cc(N3CCOCC3)nc(OCCc3ccccn3)n2)c1 [apilimod dimesylate] | 9.1 | 2.2 | 3.7 | 13.8 | 20
2 | CCC(CC)COC(=O)[C@H](C)N[P@](=O)(OC[C@H]1O[C@@](C#N)(c2ccc3c(N)ncnn23)[C@H](O)[C@@H]1O)Oc1ccccc1 [remdesivir] | – | 0.7 | – | – | 205
